Organism: Rattus norvegicus
Assay: Open TG-GATES - Regimen: Daily Repeat
Format: toxicity, organism-based, Sprague-Dawley
Design: regimen Daily Repeat, gender Male, age 6 weeks
Settings: in vivo, po, 0 mg/kg, route gavage, dose level Control; for APTT / Bas / Eos / Fbg / Hb / Ht / Lym / MCH / MCHC / MCV / Mono / Neu / PT / Plat / RBC / Ret / WBC: tissue Blood; for KIDNEY_L / KIDNEY_R / KIDNEY_TOTAL: tissue Kidney; for LIVER: tissue Liver; for A/G / ALP / ALT / AST / BUN / CRE / Ca / Cl / DBIL / GLC / IP / K / LDH / Na / PL / RALB / TBIL / TC / TG / TP / gamma-GTP: tissue Plasma

`COc1ccc(O)c(C(C)(C)C)c1.COc1ccc(O)cc1C(C)(C)C` [BUTYLATED HYDROXYANISOLE] showed a TERMINAL_BW (72 h, time 3 day) of 225.6 g, an APTT (72 h, time 3 day) of 15.7 s and a Bas (72 h, time 3 day) of 0.2%. The Eos (72 h, time 3 day) was 0.8%, the Fbg (72 h, time 3 day) was 265.6 mg/dL and the Hb (72 h, time 3 day) was 12.9 g/dL. It also gave a Ht (72 h, time 3 day) of 38%, a Lym (72 h, time 3 day) of 71.6% and an MCH (72 h, time 3 day) of 20.9 pg. The MCHC (72 h, time 3 day) was 34%, the MCV (72 h, time 3 day) was 61.5 fL and the Mono (72 h, time 3 day) was 2.4%. The Neu (72 h, time 3 day) was 24.3%, the PT (72 h, time 3 day) was 11.5 s and the Plat (72 h, time 3 day) was 140.6 x10_4/uL. The RBC (72 h, time 3 day) was 619 x10_4/ul, the Ret (72 h, time 3 day) was 6.6% and the WBC (72 h, time 3 day) was 90.7 x10_2/uL. For the same compound, the KIDNEY_L (72 h, time 3 day) was 0.9 g, the KIDNEY_R (72 h, time 3 day) was 0.9 g and the KIDNEY_TOTAL (72 h, time 3 day) was 1.9 g. For the same compound, the LIVER (72 h, time 3 day) was 10.1 g, the A/G (72 h, time 3 day) was 0.8 and the ALP (72 h, time 3 day) was 1690.8 IU/L. For the same compound, the ALT (72 h, time 3 day) was 37.2 IU/L, the AST (72 h, time 3 day) was 66.4 IU/L and the BUN (72 h, time 3 day) was 12.8 mg/dL. The CRE (72 h, time 3 day) was 0.2 mg/dL, the Ca (72 h, time 3 day) was 11.2 mg/dL and the Cl (72 h, time 3 day) was 106 meq/L. The DBIL (72 h, time 3 day) was 0.02 mg/dL, the GLC (72 h, time 3 day) was 178.4 mg/dL and the IP (72 h, time 3 day) was 7.3 mg/dL. For the same compound, the K (72 h, time 3 day) was 4 meq/L, the LDH (72 h, time 3 day) was 60.4 IU/L and the Na (72 h, time 3 day) was 143 meq/L. For the same compound, the PL (72 h, time 3 day) was 136.2 mg/dL, the RALB (72 h, time 3 day) was 2.6 g/dL and the TBIL (72 h, time 3 day) was 0.064 mg/dL. For the same compound, the TC (72 h, time 3 day) was 76.8 mg/dL, the TG (72 h, time 3 day) was 69.4 mg/dL and the TP (72 h, time 3 day) was 5.8 g/dL. For the same compound, the gamma-GTP (72 h, time 3 day) was 1 IU/L, the TERMINAL_BW ([…], time 7 day) was 252.9 g and the TERMINAL_BW ([…], time 14 day) was 320.1 g. It also gave a TERMINAL_BW ([…], time 28 day) of 409.6 g, an APTT ([…], time 7 day) of 19 s and a Bas ([…], time 7 day) of 0.3%. For the same compound, the Eos ([…], time 7 day) was 0.8%, the Fbg ([…], time 7 day) was 288.2 mg/dL and the Hb ([…], time 7 day) was 13.5 g/dL. For the same compound, the Ht ([…], time 7 day) was 38.9%, the Lym ([…], time 7 day) was 76.5% and the MCH ([…], time 7 day) was 20.8 pg. The MCHC ([…], time 7 day) was 34.7%, the MCV ([…], time 7 day) was 60.1 fL and the Mono ([…], time 7 day) was 2.5%. The Neu ([…], time 7 day) was 19.2%, the PT ([…], time 7 day) was 12.2 s and the Plat ([…], time 7 day) was 135.8 x10_4/uL. It also gave an RBC ([…], time 7 day) of 647.4 x10_4/ul, a Ret ([…], time 7 day) of 5.1% and a WBC ([…], time 7 day) of 94.6 x10_2/uL. For the same compound, the APTT ([…], time 14 day) was 16.9 s, the Bas ([…], time 14 day) was 0.3% and the Eos ([…], time 14 day) was 0.6%. It also gave a Fbg ([…], time 14 day) of 269.2 mg/dL, a Hb ([…], time 14 day) of 13.9 g/dL and a Ht ([…], time 14 day) of 40.5%. The Lym ([…], time 14 day) was 78.2%, the MCH ([…], time 14 day) was 19.9 pg and the MCHC ([…], time 14 day) was 34.4%. The MCV ([…], time 14 day) was 57.8 fL, the Mono ([…], time 14 day) was 1.9% and the Neu ([…], time 14 day) was 18.2%. It also gave a PT ([…], time 14 day) of 12.2 s, a Plat ([…], time 14 day) of 143.4 x10_4/uL and an RBC ([…], time 14 day) of 700.6 x10_4/ul. It also gave a Ret ([…], time 14 day) of 3.6%, a WBC ([…], time 14 day) of 111.3 x10_2/uL and an APTT ([…], time 28 day) of 17.9 s. It also gave a Bas ([…], time 28 day) of 0.4%, an Eos ([…], time 28 day) of 0.9% and a Fbg ([…], time 28 day) of 262.8 mg/dL. It also gave a Hb ([…], time 28 day) of 15 g/dL, a Ht ([…], time 28 day) of 41.8% and a Lym ([…], time 28 day) of 78.1%. The MCH ([…], time 28 day) was 19.5 pg, the MCHC ([…], time 28 day) was 35.9% and the MCV ([…], time 28 day) was 54.4 fL. It also gave a Mono ([…], time 28 day) of 1.8%, a Neu ([…], time 28 day) of 18.2% and a PT ([…], time 28 day) of 12.3 s. The Plat ([…], time 28 day) was 121 x10_4/uL, the RBC ([…], time 28 day) was 769 x10_4/ul and the Ret ([…], time 28 day) was 2.3%. The WBC ([…], time 28 day) was 105.1 x10_2/uL, the KIDNEY_L ([…], time 7 day) was 1 g and the KIDNEY_R ([…], time 7 day) was 1 g. For the same compound, the KIDNEY_TOTAL ([…], time 7 day) was 2 g, the KIDNEY_L ([…], time 14 day) was 1.2 g and the KIDNEY_R ([…], time 14 day) was 1.2 g. The KIDNEY_TOTAL ([…], time 14 day) was 2.3 g, the KIDNEY_L ([…], time 28 day) was 1.3 g and the KIDNEY_R ([…], time 28 day) was 1.3 g. The KIDNEY_TOTAL ([…], time 28 day) was 2.6 g, the LIVER ([…], time 7 day) was 11.4 g and the LIVER ([…], time 14 day) was 14.3 g. The LIVER ([…], time 28 day) was 16.7 g, the A/G ([…], time 7 day) was 0.8 and the ALP ([…], time 7 day) was 1903.8 IU/L. For the same compound, the ALT ([…], time 7 day) was 44.4 IU/L, the AST ([…], time 7 day) was 67 IU/L and the BUN ([…], time 7 day) was 16 mg/dL. For the same compound, the CRE ([…], time 7 day) was 0.2 mg/dL, the Ca ([…], time 7 day) was 11 mg/dL and the Cl ([…], time 7 day) was 104.8 meq/L. For the same compound, the DBIL ([…], time 7 day) was 0.02 mg/dL, the GLC ([…], time 7 day) was 180.2 mg/dL and the IP ([…], time 7 day) was 7 mg/dL. For the same compound, the K ([…], time 7 day) was 4.1 meq/L, the LDH ([…], time 7 day) was 58.2 IU/L and the Na ([…], time 7 day) was 142 meq/L. The PL ([…], time 7 day) was 135.4 mg/dL, the RALB ([…], time 7 day) was 2.6 g/dL and the TBIL ([…], time 7 day) was 0.048 mg/dL. It also gave a TC ([…], time 7 day) of 70.6 mg/dL, a TG ([…], time 7 day) of 95.2 mg/dL and a TP ([…], time 7 day) of 5.9 g/dL. The gamma-GTP ([…], time 7 day) was 1 IU/L, the A/G ([…], time 14 day) was 0.8 and the ALP ([…], time 14 day) was 1384.2 IU/L. For the same compound, the ALT ([…], time 14 day) was 32 IU/L, the AST ([…], time 14 day) was 57.6 IU/L and the BUN ([…], time 14 day) was 14.4 mg/dL. For the same compound, the CRE ([…], time 14 day) was 0.2 mg/dL, the Ca ([…], time 14 day) was 10.7 mg/dL and the Cl ([…], time 14 day) was 105.8 meq/L. The DBIL ([…], time 14 day) was 0.018 mg/dL, the GLC ([…], time 14 day) was 181.4 mg/dL and the IP ([…], time 14 day) was 6.6 mg/dL. The K ([…], time 14 day) was 3.7 meq/L, the LDH ([…], time 14 day) was 52 IU/L and the Na ([…], time 14 day) was 143 meq/L. The PL ([…], time 14 day) was 137 mg/dL, the RALB ([…], time 14 day) was 2.7 g/dL and the TBIL ([…], time 14 day) was 0.048 mg/dL. The TC ([…], time 14 day) was 72.8 mg/dL, the TG ([…], time 14 day) was 133.8 mg/dL and the TP ([…], time 14 day) was 6 g/dL. The gamma-GTP ([…], time 14 day) was 1 IU/L, the A/G ([…], time 28 day) was 0.7 and the ALP ([…], time 28 day) was 1254.6 IU/L. It also gave an ALT ([…], time 28 day) of 32.6 IU/L, an AST ([…], time 28 day) of 57.6 IU/L and a BUN ([…], time 28 day) of 17.8 mg/dL. It also gave a CRE ([…], time 28 day) of 0.3 mg/dL, a Ca ([…], time 28 day) of 10.8 mg/dL and a Cl ([…], time 28 day) of 104.8 meq/L. For the same compound, the DBIL ([…], time 28 day) was 0.02 mg/dL, the GLC ([…], time 28 day) was 191 mg/dL and the IP ([…], time 28 day) was 5.4 mg/dL. For the same compound, the K ([…], time 28 day) was 4 meq/L, the LDH ([…], time 28 day) was 62.2 IU/L and the Na ([…], time 28 day) was 143.2 meq/L. For the same compound, the PL ([…], time 28 day) was 134.6 mg/dL, the RALB ([…], time 28 day) was 2.6 g/dL and the TBIL ([…], time 28 day) was 0.054 mg/dL. It also gave a TC ([…], time 28 day) of 68.6 mg/dL, a TG ([…], time 28 day) of 179.6 mg/dL and a TP ([…], time 28 day) of 6.2 g/dL. For the same compound, the gamma-GTP ([…], time 28 day) was 1 IU/L.

From ChEMBL document CHEMBL3885861, “Open TG-GATES”
